In patent US7267718B2, “Pullulan film compositions” (Warner-Lambert Company, LLC, priority 2000, dated 2007):

Test: Pullulan film gliding performance, slanted plane test (smallest gliding angle of film-coated glass plates)
Assay type: physicochemical
Settings: smaller angle = better
Description: […] The mixture is heated to 70° C. under stirring for complete solubilisation and then the stirring is reduced for defoaming. The solution then is used to cast on glass plates of 4 mm thickness to form pullulan films of about 100 μm thickness after drying at room conditions. The pullulan film gliding performance is evaluated by a test on a slanted plan, a method commonly used by gelatine producers. The method determines the smallest angle of inclination of glass plate to provoke the gliding of a film coated glass plate over another one with films face to face. Consequently, the smaller the gliding angle, the better the film gliding performance.

[1] = surfactant 500 ppm/pullulan, cast pullulan film about 100 μm with kappa-carrageenan and potassium acetate
[2] = surfactant 1000 ppm, cast pullulan film about 100 μm

CCCCCCCCCCCCOS(=O)(=O)[O-].[Na+] [SLS, sodium lauryl sulphate]
Pullulan gliding performance (°) [1]: 9 ° | Pullulan gliding performance (°) [2]: 5 ° | Pullulan gliding performance (°) (surfactant 5000 ppm, cast pullulan film about 100 μm): 6 °

Polysorbate 20
Pullulan gliding performance (°) [1]: 12 ° | Pullulan gliding performance (°) [2]: 12 °

Polysorbate 80
Pullulan gliding performance (°) [1]: 10 ° | Pullulan gliding performance (°) [2]: 9 °

Sorbitan laurate
Pullulan gliding performance (°) [1]: 10 ° | Pullulan gliding performance (°) [2]: 8 °

Sorbitan oleate
Pullulan gliding performance (°) [1]: 9 ° | Pullulan gliding performance (°) [2]: 7 °
